The subject of data set [1] is GX_P2V. Briefly: microbe, parasite or virus in culture. The data set is classed as cell-based, Pangolin coronavirus.
Data set [2] relates to GX_P2V. It is filed as cell-based, Pangolin coronavirus.
Another data set deals with GX_P2V NP protein. The data set is classed as cell-based, Pangolin coronavirus.
Data set [3] can be described thus: Cytotoxicity, CellTiter-Blue Cell Viability Assay. To be noted: African green monkey.
Another data set addresses yeast-α-glucosidase. On the set-up: method as in ref Saw C L L et al., Biopharmaceutics & Drug Disposition, 2014, 34(6):303-311. To be noted: ref Saw C L L et al., Biopharmaceutics & Drug Disposition, 2014, 34(6):303-311, cited from earlier work.
Data set [4] relates to human tumor cell line panel. On the set-up: method as in Huang Y et al., Journal of Natural Products, 1998. To be noted: library annotation, ref Huang Y et al., Journal of Natural Products, 1998; cited from earlier work.
In data set [5] the test system is prolyl oligopeptidase (POP). More on the design: method as in ref Zhou XQ et al., Flavonoids from Scutellaria baicalensis and their bioactivities. To be noted: concentration of 100 microM; ref Zhou XQ et al., Flavonoids from Scutellaria baicalensis and their bioactivities; cited from earlier work.
For data set [6] the following is noted: cited from earlier work; for Solubility in water (in words): library annotation.
The next data set concerns SARS-CoV-2 isolate WIV04. Briefly: Anti-SARS-CoV-2 activity in vitro, viral yield in Vero E6 supernatant by qRT-PCR. The data set is classed as cell-based, Severe acute respiratory syndrome coronavirus 2. To be noted: for SI: CC50/EC50, SARS-CoV-2 WIV04 in Vero E6; for EC50: SARS-CoV-2 WIV04 MOI 0.01, Vero E6, 24 h.p.i., supernatant qRT-PCR. The text has this: To verify the drugs screened through the GX_P2V drug screening alternative model, we repeatedly tested the antiviral activity of the above drugs on SARS-CoV-2. In brief, Vero E6 cells were pre-seeded in 48-well plates at a density of 5×10^4 cells/well and continued to be cultured overnight. Two hours before infection, the culture supernatant of Vero E6 cells was discarded and replaced with a DMEM medium containing different concentration gradient drugs. Vero E6 cells were continued to be cultured for 2 hours, which was conducive to the early entry of the drugs into the cells. Vero E6 cells were infected with WIV04 at a MOI=0.01 for 1 h. After discarding the supernatant, the cells were washed twice with DMEM, and the medium was changed to a DMEM medium (10%FBS) containing the corresponding concentration of the drug. After 24 h.p.i, the cell supernatant was collected. According to the manufacturer’s instructions, the viral RNA was extract using Magnetic Bead Virus RNA Extraction Kits (Shanghai Fine Gene Biotech, FG438). The viral yield in the cell supernatant was then quantified by qRT-PCR using HiSxript II One step qRT-PCR SYBRGreen Kit (Vazyme, Nanjing, China).

Another data set deals with Vero E6 cells. Description: Cytotoxicity, CellTiter-Blue Cell Viability Assay. To be noted: Vero E6 cells, CellTiter-Blue. (In general: Alamar Blue is a resazurin reagent that responds to reducing activity.)
In another data set the test system is SARS-CoV-2. On the set-up: method as in Cao et al., 2020. To be noted: SARS-CoV-2 in vitro; ref Cao et al., 2020; cited from earlier work.
In a further data set the target is aldose reductase. To be noted: aldose reductase; vendor library annotation; ref Aida K, et al. Planta Med, 1990; read-out: IC50; cited from earlier work.
Another data set is described as follows: in vitro. To be noted: African green monkey.
The test system of the next data set is CYP3A. More on the design: method as in Wang CP, et al. J Physiol Biochem. 2014 Sep;70(3):735-47. To be noted: ref Wang CP, et al. J Physiol Biochem. 2014 Sep;70(3):735-47; cited from earlier work.
The mark [7] stands for this setting: Pangolin coronavirus, Vero C1008, 72 h.
Where [8] appears, read: Severe acute respiratory syndrome coronavirus 2, Vero C1008, 24 h.

Like-named read-outs stand apart in the source and are kept apart here.

The EC50 is the concentration needed to bring the measured effect to its halfway point.

`CO[C@H]1O[C@@H]2O[C@@]3(C)CC[C@H]4[C@H](C)CC[C@@H]([C@H]1C)[C@@]24OO3` [artemether, reference compound] displayed an EC50 in the data set with GX_P2V [1] (setting [7]) of 3.7 µM. The “stage of action in time-of-addition assay” value with GX_P2V [2] was “functioned on both entry and post-entry stages”. Also, the “expression of viral NP protein” value in the data set with GX_P2V NP protein was “almost completely inhibited”. The molecule further returned a CC50 in data set [3] (Vero E6 cells) of more than 200 µM.
Regarding `CCC/C=C1/OC(=O)c2ccccc21` [n-Butylidenephthalide], on yeast-α-glucosidase (noncompetitive fashion, read-out: K(i), yeast-α-glucosidase), the Ki was 4860 µM. Besides, on yeast-α-glucosidase (noncompetitive, read-out: IC(5), inhibition of yeast-α-glucosidase activity), the IC50 is 2350 µM.
On to `CC(C)C1=CC(=O)[C@](C)([C@H]2[C@H](O)C[C@@]3(C)[C@@H]4CC=C5[C@@H](CC[C@@H](O[C@@H]6OC[C@@H](O)[C@H](O)[C@H]6O[C@@H]6O[C@@H](C)[C@H](O)[C@@H](O)[C@H]6O)C5(C)C)[C@]4(C)C(=O)C[C@]23C)O1` [Picfeltarraenin IA], for which the “cytotoxic activity in vitro” value in data set [4] was 1. Picfeltarraenin IB and Picfeltarraenin IA displayes no cytotoxic activity in vitro human tumor cell line panel.
On to `CC(C)C1=CC(=O)[C@@](C)([C@H]2[C@H](O)C[C@@]3(C)[C@@H]4CC=C5[C@@H](CC[C@@H](O[C@@H]6O[C@H](CO)[C@@H](O)[C@H](O)[C@H]6O[C@@H]6O[C@@H](C)[C@H](O)[C@@H](O)[C@H]6O)C5(C)C)[C@]4(C)C(=O)C[C@]23C)O1` [Picfeltarraenin IB], for which the “cytotoxic activity in vitro” value in [4] is 1. Picfeltarraenin IB and Picfeltarraenin IA displayes no cytotoxic activity in vitro human tumor cell line panel.
In turn, `CCC(CC)COC(=O)[C@H](C)N[P@](=O)(OC[C@H]1O[C@@](C#N)(c2ccc3c(N)ncnn23)[C@H](O)[C@@H]1O)Oc1ccccc1` [remdesivir] returned an SI in the data set on GX_P2V [1] (CC50/EC50, GX_P2V in Vero E6) of more than 33.78. For the same molecule, in the data set on GX_P2V [1] (setting [7]), the EC50 was 0.74 µM. In data set [3], the CC50 was more than 25 µM.
Take `COc1c(O)cc2oc(-c3ccc(O)cc3)cc(=O)c2c1O` [4', 5,7-trihydroxy-6-methoxyflavone]: the “inhibition of total prolyl oligopeptidase (POP) activity” value in data set [5] was 43%.
Regarding `CCN(CCO)CCCC(C)Nc1ccnc2cc(Cl)ccc12` (centres unmarked) [hydroxychloroquine], in the data set with GX_P2V [1] (CC50/EC50, GX_P2V in Vero E6), the SI was found to be 9.157. Further, a half-maximal response in the data set with GX_P2V [1] (setting [7]) (EC50) required 6.59 µM. The CC50 in data set [3] is 60.3 µM.
Regarding `O=C(/C=C/c1ccc(O)c2c1[C@@H](C(=O)O[C@H](Cc1ccc(O)c(O)c1)C(=O)O)[C@H](c1ccc(O)c(O)c1)O2)O[C@H](Cc1ccc(O)c(O)c1)C(=O)O` [lithospermic acid B], in data set [6] (ref Wang J, et al. Evidence-Based Complementary and Alternative Medicine, 2013, 2013:1-16.), the “Solubility in water (in words)” value is “lithospermic acid B is a water-soluble antioxidant from Salvia extract. It plays significant role of antioxidant effect; antiplatelet aggregation, anticoagulant, and antithrombotic effect”.
On to `Cc1cccc(C)c1OCC(=O)N[C@@H](Cc1ccccc1)[C@@H](O)C[C@H](Cc1ccccc1)NC(=O)[C@H](C(C)C)N1CCCNC1=O` [lopinavir], for which, in the data set on GX_P2V [1] (CC50/EC50, GX_P2V in Vero E6), the SI was more than 2.13. For the same molecule, in the data set on GX_P2V [1] (setting [7]), the EC50 came to 11.7 µM. For the same molecule, in data set [3], the CC50 was more than 25 µM.
On the same counts, the results for `Cc1c(O)cccc1C(=O)N[C@@H](CSc1ccccc1)[C@H](O)CN1C[C@H]2CCCC[C@H]2C[C@H]1C(=O)NC(C)(C)C` [nelfinavir] are 5.86, 6.71 µM and 39.3 µM.
As for `COc1c(/C=C/C(=O)c2ccc(O)cc2)ccc(O)c1O` [licochalcone B, Licochalcone B], the figures for the SI with GX_P2V [1] and in the data set on SARS-CoV-2 isolate WIV04 were 4.28 and 6.86, respectively. For the same molecule, the EC50 with GX_P2V [1] (read-out: EC50) was found to be 24.9 µM; with SARS-CoV-2 isolate WIV04, 15.5 µM. Besides, in the data set on GX_P2V NP protein, the “expression of viral NP protein” value is listed as “most viral NP proteins can be inhibited”. This molecule yielded a CC50 in the data set with Vero E6 cells of 106 µM.
Turning to `COc1ccc(-c2cc(=O)c3c(OC)c(OC)c(OC)c(OC)c3o2)cc1OC` [Nobiletin], the solubility in water entry in [6] (vendor library annotation, ref Murakami A, et al. Cancer Res, 2000) was “Nobiletin is a natural polymethoxylated flavone isolated from citrus peels with anti-inflammatory and anti-tumor activities. Nobiletin is practically insoluble (in water) and an extremely weak acidic compound (based on its pKa)”.
As to `C[C@H]1[C@H](OC(=O)CCC(=O)O)O[C@@H]2O[C@@]3(C)CC[C@H]4[C@H](C)CC[C@@H]1[C@@]24OO3` [artesunate, reference compound], the EC50 in the data set on SARS-CoV-2 was 13 ± 5.3 µM; with GX_P2V [1] (setting [7]), 10.1 µM; in the data set with SARS-CoV-2 isolate WIV04 (setting [8]), 16.2 µM. Further, in the data set with SARS-CoV-2 isolate WIV04, the SI was determined as 7.84. In [6] (ref Xu N, et al. Int J Med Sci. 2015, 12(6):524-529.), the “Solubility in water (in words)” value was “Artesunate is part of the artemisinin group of drugs that treat malaria. It is a semi-synthetic derivative of artemisinin that is water-soluble and may therefore be given by injection. It is on the World Health Organization's List of Essential Medicines”. In the data set with GX_P2V NP protein, the “expression of viral NP protein” value is listed as “most viral NP proteins can be inhibited”. Further, the CC50 in [3] and in [3] (Vero E6 cells) was 127 µM throughout.
Take `COc1cc(O)ccc1/C=C/C(=O)c1ccc(O)cc1` [echinatin]: the figures for the EC50 with GX_P2V [1] (setting [7]) and in the data set on SARS-CoV-2 isolate WIV04 (setting [8]) were 20.9 µM and 7.86 µM, respectively. Besides, the SI with SARS-CoV-2 isolate WIV04 is 15.27. In addition, in the data set with GX_P2V NP protein, the “expression of viral NP protein” value is on record as “most viral NP proteins can be inhibited”. For the same molecule, the CC50 in [3] came out at 158 µM; in data set [3] (Vero E6 cells) it was 120 µM.
Regarding `COc1ccc(-c2cc(=O)c3c(O)cc(O[C@@H]4O[C@H](CO)[C@@H](O)[C@H](O)[C@H]4O[C@@H]4O[C@@H](C)[C@H](O)[C@@H](O)[C@H]4O)cc3o2)cc1O` [Neodiosmin], in data set [6] (ref Mencherini T, et al. Journal of Agricultural and Food Chemistry, 2013, 61(8):1686-1693), the aqueous solubility was 1. Neodiosmin has poor aqueous solubility but exerts a good debittering effect and is a strong antioxidant with potential applications in foods, beverages, and pharmaceutical preparations.
In the case of `C=C1C(=O)O[C@@]23[C@H]1CC[C@@H](C)[C@@H]2CC[C@@]1(C)O[C@@H]31` [arteannuin B], the EC50 in the data set with SARS-CoV-2 was 10.3 ± 1.12 µM; with GX_P2V [1] (setting [7]) it was 8.84 µM; in the data set with SARS-CoV-2 isolate WIV04 (setting [8]), 12 µM. This molecule had an SI in the data set on SARS-CoV-2 isolate WIV04 of 9.72. The “expression of viral NP protein” value with GX_P2V NP protein is “achieved the same inhibitory effect”. The figures for the CC50 in data set [3] and in [3] (Vero E6 cells) were 111 µM and 117 µM, respectively.
Consider `O=C(/C=C/c1ccc(O)cc1)c1ccc(O)cc1O` [Isoliquiritigenin], for which the IC50 at aldose reductase was 0.32 µM.
`CCN(CC)CCCC(C)Nc1ccnc2cc(Cl)ccc12` (centres unmarked) [chloroquine] came in with an SI in the data set with GX_P2V [1] of more than 3.92. Besides, the response in the data set on GX_P2V [1] (setting [7]) was half-maximal at 12.8 µM (EC50). For the same molecule, the CC50 in “in vitro” is more than 50 µM.
`COc1cc2c(c(OC)c1OC)-c1c(cc(OC)c(OC)c1OC)C[C@H](C)[C@H](C)C2` [Schizandrin A]: in the data set with CYP3A, the IC50 is 6.6 µM and the Ki is 5.83 µM.
Take `C=C1CC[C@@H]2[C@](C)(CO)[C@H](O)CC[C@@]2(C)[C@@H]1C/C=C1/C(=O)OC[C@H]1O` [andrographolide]: the SI amounted to 14.11 with GX_P2V [1] (CC50/EC50, GX_P2V in Vero E6) and 8.61 with SARS-CoV-2 isolate WIV04. In addition, the EC50 in the data set with GX_P2V [1] (setting [7]) turned out to be 6.79 µM; with SARS-CoV-2 isolate WIV04 (setting [8]) it was 11.1 µM. The “expression of viral NP protein” value with GX_P2V NP protein is given as “achieved the same inhibitory effect”. Also, the figures for the CC50 in data set [3] and in data set [3] (Vero E6 cells) were 95.8 µM and 95.7 µM, respectively.
For the molecule `COc1c(O[C@@H]2O[C@H](C(=O)O)[C@@H](O)[C@H](O)[C@H]2O)cc2oc(-c3ccccc3)cc(=O)c2c1O` [Oroxylin A 7-O-beta-D-glucuronide], in data set [5], the “inhibition of total prolyl oligopeptidase (POP) activity” value is reported as 34%.

The values above are taken from paper PMC8435859 (Frontiers in Cellular and Infection Microbiology, 2021).
